Test results published in patent US20230066946A1, “1,5-DIPHENYLPYRAZOLYL-3-OXYALKYL ACIDS AND 1-PHENYL-5-THIENYLPYRAZOLYL-3-OXYALKYL ACIDS AND THE USE THEREOF FOR CONTROL OF UNWANTED PLANT GROWTH” (Bayer Aktiengesellschaft, priority 2019, published 2023).
Values joined by “and” are separate entries in the source; they are usually repeats but may differ in a detail not shown here. Identical values can stand only once.

Key:
ALOMY [1] = test: Pre-emergence herbicidal action against ALOMY; assay type: in vivo, Alopecurus myosuroides; conditions: scored visually after about 3 weeks vs untreated controls, 100% = plants have died, 0% = like control plants
Procedure, shortened: (§1)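 Pre-emergence, sandy loam, pots doubly sown. WP/EC formulations + 0.5% additive, 600 L/ha water, sprayed on soil surface; 1280 or 320 g/ha. Greenhouse ~3 wk; visual % effect vs untreated.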

ECHCG = test: Pre-emergence herbicidal action against ECHCG; assay type: in vivo, Echinochloa crus-galli; conditions: scored visually after about 3 weeks vs untreated controls, 100% = plants have died, 0% = like control plants
Procedure, shortened: as §1

SETVI = test: Pre-emergence herbicidal action against SETVI; assay type: in vivo, Setaria viridis; conditions: 1280 g/ha, scored visually after about 3 weeks vs untreated controls
Procedure, shortened: as §1

AMARE [2] = test: Pre-emergence herbicidal action against AMARE; assay type: in vivo, Amaranthus retroflexus; conditions: scored visually after about 3 weeks vs untreated controls
Procedure, shortened: as §1

MATIN [3] = test: Pre-emergence herbicidal action against MATIN; assay type: in vivo, Matricaria inodora; conditions: 1280 g/ha, scored visually after about 3 weeks vs untreated controls
Procedure, shortened: as §1

AVEFA [4] = test: Pre-emergence herbicidal action against AVEFA; assay type: in vivo, Avena fatua; conditions: scored visually after about 3 weeks vs untreated controls, 100% = plants have died, 0% = like control plants
From the text: (§2) Seeds of mono- and dicotyledonous weed plants are placed in plastic pots in sandy loam soil (doubly sown with one species each of mono- or dicotyledonous weed plants per pot) and covered with soil. The compounds of the invention, formulated in the form of wettable powders (WP) or as emulsion concentrates (EC), are then applied onto the surface of the covering soil as aqueous suspension or emulsion with addition of 0.5% additive at a water application rate equivalent to 600 litres per hectare. After the treatment, the pots are placed in a greenhouse and kept under good growth conditions for the trial plants. After about 3 weeks, the effect of the preparations is scored visually in comparison with untreated controls as percentages. For example, 100% activity=the plants have died, 0% activity=like control plants. [table] Tables 4.1-4.15 below show the effects of selected compounds of the general formula (I) according to Tables 1 to 3 on various harmful plants at an application rate corresponding to 1280 or 320 g/ha, which have been obtained by the aforementioned experimental method.

PHBPU [5] = test: Pre-emergence herbicidal action against PHBPU; assay type: in vivo, Pharbitis purpurea; conditions: 1280 g/ha, scored visually after about 3 weeks vs untreated controls
From the text: as §2

POLCO [6] = test: Pre-emergence herbicidal action against POLCO; assay type: in vivo, Polygonum convolvulus; conditions: 320 g/ha, scored visually after about 3 weeks vs untreated controls
Procedure, shortened: as §1

STEME [7] = test: Pre-emergence herbicidal action against STEME; assay type: in vivo, Stellaria media; conditions: scored visually after about 3 weeks vs untreated controls
Procedure, shortened: as §1

VIOTR = test: Pre-emergence herbicidal action against VIOTR; assay type: in vivo, Viola tricolor; conditions: 1280 g/ha, scored visually after about 3 weeks vs untreated controls
Procedure, shortened: as §1

VERPE [8] = test: Pre-emergence herbicidal action against VERPE; assay type: in vivo, Veronica persica; conditions: 320 g/ha, scored visually after about 3 weeks vs untreated controls
Procedure, shortened: as §1

ALOMY [9] = test: Post-emergence herbicidal action against ALOMY; assay type: in vivo, Alopecurus myosuroides; conditions: 1280 g/ha, post-emergence at one-leaf stage, rated visually after about 3 weeks vs untreated controls
Procedure, shortened: (§3)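 Weeds grown in sandy loam under greenhouse conditions were sprayed at the one-leaf stage, 2-3 weeks after sowing. Compounds were applied as WP or EC formulations in water with 0.5% additive at 600 L/ha, at 1280 or 320 g/ha. Activity was rated visually about 3 weeks later against untreated controls (0-100%).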

AVEFA [10] = test: Post-emergence herbicidal action against AVEFA; assay type: in vivo, Avena fatua; conditions: 1280 g/ha, post-emergence at one-leaf stage, rated visually after about 3 weeks vs untreated controls
Description: (§4) [table] Seeds of mono- and dicotyledonous weed plants are placed in plastic pots in sandy loam soil (twin sowing with one species each of mono- or dicotyledonous weed plants per pot), covered with soil and cultivated in a greenhouse under controlled growth conditions. 2 to 3 weeks after sowing, the test plants are treated at the one-leaf stage. The compounds of the invention, formulated in the form of wettable powders (WP) or as emulsion concentrates (EC), are applied to the green parts of the plants as aqueous suspension or emulsion with addition of 0.5% additive at a water application rate equivalent to 600 litres per hectare. After the test plants have been kept in the greenhouse under optimum growth conditions for about 3 weeks, the activity of the preparations is rated visually in comparison to untreated controls. For example, 100% activity=the plants have died, 0% activity=like control plants. Tables 5.1-5.16 below show the effects of selected compounds of the general formula (I) according to Tables 1 to 3 on various harmful plants at an application rate corresponding to 1280 or 320 g/ha, which have been obtained by the aforementioned experimental method.

LOLRI = test: Post-emergence herbicidal action against LOLRI; assay type: in vivo, Lolium rigidum; conditions: 1280 g/ha, post-emergence at one-leaf stage, rated visually after about 3 weeks vs untreated controls
Description: as §4

AMARE [11] = test: Post-emergence herbicidal action against AMARE; assay type: in vivo, Amaranthus retroflexus; conditions: visual rating about 3 weeks after treatment
Procedure, shortened: as §3

MATIN [12] = test: Post-emergence herbicidal action against MATIN; assay type: in vivo, Matricaria inodora; conditions: visual rating about 3 weeks after treatment
Procedure, shortened: as §3

PHBPU [13] = test: Post-emergence herbicidal action against PHBPU; assay type: in vivo, Pharbitis purpurea; conditions: 320 g/ha, visual rating about 3 weeks after treatment
Procedure, shortened: as §3

POLCO [14] = test: Post-emergence herbicidal action against POLCO; assay type: in vivo, Polygonum convolvulus; conditions: 320 g/ha, visual rating about 3 weeks after treatment
Procedure, shortened: as §3

STEME [15] = test: Post-emergence herbicidal action against STEME; assay type: in vivo, Stellaria media; conditions: visual rating about 3 weeks after treatment
Procedure, shortened: as §3

VERPE [16] = test: Post-emergence herbicidal action against VERPE; assay type: in vivo, Veronica persica; conditions: 320 g/ha, visual rating about 3 weeks after treatment
Procedure, shortened: as §3

HORMU = test: Post-emergence herbicidal action against HORMU; assay type: in vivo, Hordeum murinum; conditions: 320 g/ha, visual rating about 3 weeks after treatment
Procedure, shortened: as §3

harmful plants = test: Pre-emergence herbicidal action, summary of Tables 4.1-4.15; assay type: in vivo; conditions: result in words
Procedure, shortened: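 Percent herbicidal action (100% = plants dead, 0% = like controls) was assessed visually about 3 weeks after treatment. Application rates of 1280 or 320 g/ha were applied to the covering soil of freshly sown sandy-loam pots, in 600 l/ha water with 0.5% additive, before emergence.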

## O=C(O)COc1nn(-c2ccccc2)c(-c2ccc(F)cc2)c1Br [I-057]
ALOMY [1]
  Pre-emergence action at 1280 g/ha against ALOMY in %: 90%
ECHCG
  Pre-emergence action at 1280 g/ha against ECHCG in %: 80%
SETVI
  Pre-emergence action against SETVI in %: 90%
AMARE [2]; 320 g/ha, 100% = plants have died, 0% = like control plants
  Pre-emergence action at 320 g/ha against AMARE in %: 100% and 90%
AMARE [2]; 1280 g/ha
  Pre-emergence action against AMARE in %: 100%
MATIN [3]
  Pre-emergence action against MATIN in %: 100%
AVEFA [4]
  Pre-emergence action at 1280 g/ha against AVEFA in %: 80%
PHBPU [5]
  Pre-emergence action against PHBPU in %: 90%
POLCO [6]
  Pre-emergence action against POLCO in %: 90%
STEME [7]; 320 g/ha
  Pre-emergence action against STEME in %: 80%
STEME [7]; 1280 g/ha
  Pre-emergence action against STEME in %: 100%
VIOTR
  Pre-emergence action against VIOTR in %: 100%
VERPE [8]
  Pre-emergence action against VERPE in %: 90%
ALOMY [9]
  Post-emergence action against ALOMY in %: 90%
AVEFA [10]
  Post-emergence action against AVEFA in %: 90%
LOLRI
  Post-emergence action against LOLRI in %: 80%
AMARE [11]; 320 g/ha
  Post-emergence action against AMARE in %: 80%
AMARE [11]; 1280 g/ha
  Post-emergence action against AMARE in %: 80%
MATIN [12]; 320 g/ha
  Post-emergence action against MATIN in %: 80%
MATIN [12]; 1280 g/ha
  Post-emergence action against MATIN in %: 90%
PHBPU [13]
  Post-emergence action against PHBPU in %: 90%
POLCO [14]
  Post-emergence action against POLCO in %: 80%
STEME [15]; 320 g/ha
  Post-emergence action against STEME in %: 80%
STEME [15]; 1280 g/ha
  Post-emergence action against STEME in %: 90%
VERPE [16]
  Post-emergence action against VERPE in %: 80%
HORMU
  Post-emergence action against HORMU in %: 80%
Harmful plants
  herbicidal efficacy against harmful plants in the case of pre-emergence treatment: good herbicidal efficacy
